# Assay results taken from publication PMC8800111 (The Journal of Biological Chemistry, 2021).
# How the values were obtained:
# Format in all cases: cell-based
# [1] = target: proteins of U3A human fibrosarcoma cells (4462 proteins detected) (Homo sapiens, UniProt O00629); settings: protein KPNA4; U3A cells
# [2] = target: proteins of U3A human fibrosarcoma cells (4462 proteins detected) (Homo sapiens, UniProt O00764); settings: protein PDXK, U3A cells
# [3] = target: proteins of U3A human fibrosarcoma cells (4462 proteins detected) (Homo sapiens, UniProt P06733); settings: protein ENO1; U3A, 10 μM, 2 h
# [4] = target: proteins of U3A human fibrosarcoma cells (4462 proteins detected) (Homo sapiens, UniProt P13473); settings: protein LAMP2; soluble abundance after heat, U3A cells
# [5] = target: proteins of U3A human fibrosarcoma cells (4462 proteins detected) (Homo sapiens, UniProt P17252); settings: protein PRKCA; U3A cells
# [6] = target: proteins of U3A human fibrosarcoma cells (4462 proteins detected) (Homo sapiens, UniProt P17813); settings: protein ENG; U3A cells
# [7] = target: proteins of U3A human fibrosarcoma cells (4462 proteins detected) (Homo sapiens, UniProt P18206); settings: protein VCL; soluble abundance after heat, U3A cells
# [8] = target: proteins of U3A human fibrosarcoma cells (4462 proteins detected) (Homo sapiens, UniProt P27816); settings: protein MAP4, U3A cells
# Chain of proteins of U3A human fibrosarcoma cells (4462 proteins detected) (Homo sapiens, UniProt P27816) (P27816 whole entry): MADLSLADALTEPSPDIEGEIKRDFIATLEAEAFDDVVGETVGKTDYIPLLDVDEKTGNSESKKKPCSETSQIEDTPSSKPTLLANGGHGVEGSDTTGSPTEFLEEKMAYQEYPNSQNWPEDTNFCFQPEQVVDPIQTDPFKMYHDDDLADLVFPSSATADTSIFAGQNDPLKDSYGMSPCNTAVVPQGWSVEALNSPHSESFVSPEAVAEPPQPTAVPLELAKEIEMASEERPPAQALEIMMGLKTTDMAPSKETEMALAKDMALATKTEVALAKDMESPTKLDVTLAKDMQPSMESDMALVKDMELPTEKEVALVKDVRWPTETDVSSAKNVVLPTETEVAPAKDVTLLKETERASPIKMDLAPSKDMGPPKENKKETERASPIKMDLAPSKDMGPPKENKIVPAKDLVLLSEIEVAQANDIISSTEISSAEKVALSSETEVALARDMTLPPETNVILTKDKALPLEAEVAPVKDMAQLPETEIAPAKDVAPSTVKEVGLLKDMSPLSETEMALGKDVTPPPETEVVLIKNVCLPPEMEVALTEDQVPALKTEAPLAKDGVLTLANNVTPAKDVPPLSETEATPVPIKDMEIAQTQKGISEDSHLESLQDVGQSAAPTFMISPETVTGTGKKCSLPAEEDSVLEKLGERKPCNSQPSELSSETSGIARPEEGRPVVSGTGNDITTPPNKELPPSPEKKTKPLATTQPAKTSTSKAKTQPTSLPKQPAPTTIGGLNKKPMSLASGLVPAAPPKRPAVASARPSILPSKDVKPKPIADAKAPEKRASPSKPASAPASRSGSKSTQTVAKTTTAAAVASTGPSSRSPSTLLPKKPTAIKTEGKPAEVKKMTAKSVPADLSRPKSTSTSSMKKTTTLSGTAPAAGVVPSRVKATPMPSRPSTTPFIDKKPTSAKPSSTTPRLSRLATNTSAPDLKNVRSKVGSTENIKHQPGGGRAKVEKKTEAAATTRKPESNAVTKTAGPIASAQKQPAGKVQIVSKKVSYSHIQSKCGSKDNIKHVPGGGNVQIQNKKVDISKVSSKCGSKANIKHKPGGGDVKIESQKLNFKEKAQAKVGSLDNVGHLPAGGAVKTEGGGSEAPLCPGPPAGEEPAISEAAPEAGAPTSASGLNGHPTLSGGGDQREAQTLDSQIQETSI
# [9] = target: proteins of U3A human fibrosarcoma cells (4462 proteins detected) (Homo sapiens, UniProt P46060); settings: protein RANGAP1; U3A cells
# Chain of proteins of U3A human fibrosarcoma cells (4462 proteins detected) (Homo sapiens, UniProt P46060) (P46060 whole entry): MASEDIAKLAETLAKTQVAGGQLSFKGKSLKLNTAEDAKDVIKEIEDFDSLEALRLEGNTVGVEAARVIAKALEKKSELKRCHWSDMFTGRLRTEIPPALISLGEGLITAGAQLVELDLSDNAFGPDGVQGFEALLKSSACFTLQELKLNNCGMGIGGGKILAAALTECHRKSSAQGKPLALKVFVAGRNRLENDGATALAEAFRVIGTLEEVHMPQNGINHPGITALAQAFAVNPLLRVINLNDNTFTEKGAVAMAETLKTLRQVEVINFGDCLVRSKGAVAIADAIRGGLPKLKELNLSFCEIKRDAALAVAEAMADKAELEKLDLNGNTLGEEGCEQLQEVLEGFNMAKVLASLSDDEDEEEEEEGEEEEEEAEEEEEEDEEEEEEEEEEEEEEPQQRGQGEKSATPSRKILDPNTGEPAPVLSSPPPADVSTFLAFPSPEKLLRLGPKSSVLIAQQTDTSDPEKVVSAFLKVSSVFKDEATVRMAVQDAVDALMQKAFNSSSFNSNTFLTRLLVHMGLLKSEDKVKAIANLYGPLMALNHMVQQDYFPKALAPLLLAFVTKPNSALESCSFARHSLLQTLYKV
# [10] = target: proteins of U3A human fibrosarcoma cells (4462 proteins detected) (Homo sapiens, UniProt P49368); settings: protein CCT3; U3A cells
# [11] = target: proteins of U3A human fibrosarcoma cells (4462 proteins detected) (Homo sapiens, UniProt P54886); settings: protein ALDH18A1; U3A cells
# [12] = target: proteins of U3A human fibrosarcoma cells (4462 proteins detected) (Homo sapiens, UniProt P54920); settings: protein NAPA; soluble abundance after heat, U3A cells
# [13] = target: proteins of U3A human fibrosarcoma cells (4462 proteins detected) (Homo sapiens, UniProt Q03252); settings: protein LMNB2; U3A cells
# [14] = target: proteins of U3A human fibrosarcoma cells (4462 proteins detected) (Homo sapiens, UniProt Q12931); settings: protein TRAP1; U3A cells
# [15] = target: proteins of U3A human fibrosarcoma cells (4462 proteins detected) (Homo sapiens, UniProt Q14657); settings: protein LAGE3; soluble abundance after heat, U3A cells
# [16] = target: proteins of U3A human fibrosarcoma cells (4462 proteins detected) (Homo sapiens, UniProt Q16401); settings: protein PSMD5; soluble abundance after heat, U3A cells
# [17] = target: proteins of U3A human fibrosarcoma cells (4462 proteins detected) (Homo sapiens, UniProt Q3B726); settings: protein TWISTNB; U3A cells
# [18] = target: proteins of U3A human fibrosarcoma cells (4462 proteins detected) (Homo sapiens, UniProt Q7L5N1); settings: protein COPS6; U3A cells
# [19] = target: proteins of U3A human fibrosarcoma cells (4462 proteins detected) (Homo sapiens, UniProt Q86TU7); settings: protein SETD3; U3A cells
# [20] = target: proteins of U3A human fibrosarcoma cells (4462 proteins detected) (Homo sapiens, UniProt Q8N9T8); settings: protein KRI1; soluble abundance after heat, U3A cells
# [21] = target: proteins of U3A human fibrosarcoma cells (4462 proteins detected) (Homo sapiens, UniProt Q92797); settings: protein SYMPK; soluble abundance after heat, U3A cells
# Chain of proteins of U3A human fibrosarcoma cells (4462 proteins detected) (Homo sapiens, UniProt Q92797) (Q92797 whole entry): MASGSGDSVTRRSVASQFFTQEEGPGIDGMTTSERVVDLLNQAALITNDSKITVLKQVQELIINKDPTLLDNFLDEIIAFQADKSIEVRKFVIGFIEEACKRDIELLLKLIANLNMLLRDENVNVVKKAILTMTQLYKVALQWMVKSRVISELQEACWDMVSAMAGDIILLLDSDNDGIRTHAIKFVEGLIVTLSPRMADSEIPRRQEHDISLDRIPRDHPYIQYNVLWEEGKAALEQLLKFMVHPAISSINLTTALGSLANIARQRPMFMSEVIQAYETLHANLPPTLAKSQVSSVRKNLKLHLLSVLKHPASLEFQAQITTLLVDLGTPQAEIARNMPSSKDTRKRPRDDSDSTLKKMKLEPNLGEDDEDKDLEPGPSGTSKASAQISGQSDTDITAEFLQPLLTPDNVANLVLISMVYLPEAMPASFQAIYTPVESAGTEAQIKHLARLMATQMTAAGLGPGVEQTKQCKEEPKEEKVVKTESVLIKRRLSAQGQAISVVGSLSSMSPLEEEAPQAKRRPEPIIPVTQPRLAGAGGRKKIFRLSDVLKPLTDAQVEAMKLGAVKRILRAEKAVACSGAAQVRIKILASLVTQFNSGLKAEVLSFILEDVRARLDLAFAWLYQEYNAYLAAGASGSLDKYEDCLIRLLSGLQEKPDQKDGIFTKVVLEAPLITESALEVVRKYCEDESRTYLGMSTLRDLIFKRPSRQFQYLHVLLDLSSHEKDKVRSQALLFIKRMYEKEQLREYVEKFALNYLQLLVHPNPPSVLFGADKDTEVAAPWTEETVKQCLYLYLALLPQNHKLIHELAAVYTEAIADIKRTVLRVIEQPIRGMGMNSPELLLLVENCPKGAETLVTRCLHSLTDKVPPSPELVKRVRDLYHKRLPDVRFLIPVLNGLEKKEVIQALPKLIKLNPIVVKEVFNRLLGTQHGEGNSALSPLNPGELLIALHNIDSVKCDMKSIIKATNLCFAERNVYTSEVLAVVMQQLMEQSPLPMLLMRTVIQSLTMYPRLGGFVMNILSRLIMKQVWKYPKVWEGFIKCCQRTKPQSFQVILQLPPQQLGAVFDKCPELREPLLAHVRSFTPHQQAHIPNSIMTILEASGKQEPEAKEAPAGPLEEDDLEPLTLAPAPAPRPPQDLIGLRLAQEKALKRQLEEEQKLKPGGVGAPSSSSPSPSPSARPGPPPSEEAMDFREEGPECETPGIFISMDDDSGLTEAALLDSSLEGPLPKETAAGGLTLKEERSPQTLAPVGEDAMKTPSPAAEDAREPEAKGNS
# [22] = target: proteins of U3A human fibrosarcoma cells (4462 proteins detected) (Homo sapiens, UniProt Q96TA2); settings: protein YME1L1; U3A cells
# Chain of proteins of U3A human fibrosarcoma cells (4462 proteins detected) (Homo sapiens, UniProt Q96TA2) (Q96TA2 whole entry): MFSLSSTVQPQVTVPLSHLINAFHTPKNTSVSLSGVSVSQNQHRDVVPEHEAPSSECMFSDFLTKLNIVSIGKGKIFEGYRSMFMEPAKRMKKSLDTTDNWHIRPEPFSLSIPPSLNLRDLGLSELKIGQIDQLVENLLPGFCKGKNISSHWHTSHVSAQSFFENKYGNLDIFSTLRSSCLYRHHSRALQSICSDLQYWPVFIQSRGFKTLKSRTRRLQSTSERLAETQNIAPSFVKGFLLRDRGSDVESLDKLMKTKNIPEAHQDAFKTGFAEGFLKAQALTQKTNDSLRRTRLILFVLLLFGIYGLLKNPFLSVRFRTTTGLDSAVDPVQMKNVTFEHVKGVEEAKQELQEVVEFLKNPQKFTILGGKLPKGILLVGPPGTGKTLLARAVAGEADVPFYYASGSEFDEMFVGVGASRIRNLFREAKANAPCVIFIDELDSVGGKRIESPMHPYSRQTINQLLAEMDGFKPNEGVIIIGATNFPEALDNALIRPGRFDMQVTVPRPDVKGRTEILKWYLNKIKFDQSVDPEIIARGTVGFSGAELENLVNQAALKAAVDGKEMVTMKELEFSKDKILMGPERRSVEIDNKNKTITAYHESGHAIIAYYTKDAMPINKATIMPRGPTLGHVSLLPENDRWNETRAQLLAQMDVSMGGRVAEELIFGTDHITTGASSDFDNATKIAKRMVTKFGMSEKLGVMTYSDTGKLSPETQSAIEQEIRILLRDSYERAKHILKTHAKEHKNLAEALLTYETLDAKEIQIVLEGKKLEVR
# [23] = target: proteins of U3A human fibrosarcoma cells (4462 proteins detected) (Homo sapiens, UniProt Q9H1B7); settings: protein IRF2BPL; soluble abundance after heat, U3A cells
# [24] = target: proteins of U3A human fibrosarcoma cells (4462 proteins detected) (Homo sapiens, UniProt Q9H4A6); settings: protein GOLPH3; U3A cells
# Chain of proteins of U3A human fibrosarcoma cells (4462 proteins detected) (Homo sapiens, UniProt Q9H4A6) (Q9H4A6 whole entry): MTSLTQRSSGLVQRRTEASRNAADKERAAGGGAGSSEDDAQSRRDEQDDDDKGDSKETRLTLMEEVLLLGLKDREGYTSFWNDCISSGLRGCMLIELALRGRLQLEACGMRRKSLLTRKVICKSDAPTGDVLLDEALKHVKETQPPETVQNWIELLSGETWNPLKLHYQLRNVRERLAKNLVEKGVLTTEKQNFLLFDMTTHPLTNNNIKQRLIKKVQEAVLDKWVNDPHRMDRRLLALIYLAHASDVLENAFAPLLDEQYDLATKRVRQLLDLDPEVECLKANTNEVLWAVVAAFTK
# [25] = target: proteins of U3A human fibrosarcoma cells (4462 proteins detected) (Homo sapiens, UniProt Q9H9Y6); settings: protein POLR1B; soluble abundance after heat, U3A cells
# [26] = target: proteins of U3A human fibrosarcoma cells (4462 proteins detected) (Homo sapiens, UniProt Q9NX08); settings: protein COMMD8; soluble abundance after heat, U3A cells
# Chain of proteins of U3A human fibrosarcoma cells (4462 proteins detected) (Homo sapiens, UniProt Q9NX08) (Q9NX08 whole entry): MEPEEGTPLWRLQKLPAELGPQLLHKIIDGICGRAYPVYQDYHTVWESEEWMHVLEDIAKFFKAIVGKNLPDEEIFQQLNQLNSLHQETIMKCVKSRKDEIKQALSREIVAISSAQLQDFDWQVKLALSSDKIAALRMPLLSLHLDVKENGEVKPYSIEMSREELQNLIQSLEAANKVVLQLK
# [27] = target: proteins of U3A human fibrosarcoma cells (4462 proteins detected) (Homo sapiens, UniProt Q9NZ52); settings: protein GGA3; soluble abundance after heat, U3A cells
# Chain of proteins of U3A human fibrosarcoma cells (4462 proteins detected) (Homo sapiens, UniProt Q9NZ52) (Q9NZ52 whole entry): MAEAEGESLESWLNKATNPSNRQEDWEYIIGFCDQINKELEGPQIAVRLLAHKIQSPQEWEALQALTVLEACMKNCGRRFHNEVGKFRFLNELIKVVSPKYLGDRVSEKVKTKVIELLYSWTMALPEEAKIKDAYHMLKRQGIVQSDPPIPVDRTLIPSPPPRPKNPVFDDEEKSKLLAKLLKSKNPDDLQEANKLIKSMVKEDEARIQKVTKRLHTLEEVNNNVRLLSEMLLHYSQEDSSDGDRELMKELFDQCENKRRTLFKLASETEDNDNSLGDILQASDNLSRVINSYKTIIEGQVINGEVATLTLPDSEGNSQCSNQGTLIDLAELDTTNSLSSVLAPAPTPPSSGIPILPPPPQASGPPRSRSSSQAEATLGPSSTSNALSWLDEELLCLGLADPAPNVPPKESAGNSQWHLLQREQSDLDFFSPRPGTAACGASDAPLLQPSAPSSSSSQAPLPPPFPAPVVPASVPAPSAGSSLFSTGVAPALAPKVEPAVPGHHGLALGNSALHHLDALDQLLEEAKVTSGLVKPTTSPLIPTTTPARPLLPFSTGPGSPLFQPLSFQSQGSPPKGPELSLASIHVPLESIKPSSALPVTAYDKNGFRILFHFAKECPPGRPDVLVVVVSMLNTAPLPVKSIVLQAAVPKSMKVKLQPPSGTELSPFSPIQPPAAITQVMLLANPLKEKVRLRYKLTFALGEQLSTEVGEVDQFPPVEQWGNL
# [28] = target: proteins of U3A human fibrosarcoma cells (4462 proteins detected) (Homo sapiens, UniProt Q9P2K3); settings: protein RCOR3; U3A cells
# [29] = target: proteins of U3A human fibrosarcoma cells (4462 proteins detected) (Homo sapiens, UniProt Q9UPN9); settings: protein TRIM33; U3A cells
# [30] = target: proteins of U3A human fibrosarcoma cells (4462 proteins detected) (Homo sapiens, UniProt Q9Y281); settings: protein CFL2, U3A cells
structure (smiles),measurement,setting,value
CCc1nc(N)nc(N)c1-c1ccc(Cl)cc1 [pyrimethamine],Log2 (PYR/DMSO),[1],0.22
same,Log2 (PYR/DMSO),[2],-0.05
same,"Log2 (PYR/DMSO), ENO1",[3],-0.17
same,Log2 (PYR/DMSO),[4],0.14
same,Log2 (PYR/DMSO),[5],0.16
same,Log2 (PYR/DMSO),[6],0.15
same,Log2 (PYR/DMSO),[7],0.15
same,Log2 (PYR/DMSO),[8],-0.05
same,Log2 (PYR/DMSO),[9],0.18
same,Log2 (PYR/DMSO),[10],0.17
same,Log2 (PYR/DMSO),[11],0.17
same,Log2 (PYR/DMSO),[12],0.14
same,Log2 (PYR/DMSO),[13],0.19
same,Log2 (PYR/DMSO),[14],0.21
same,Log2 (PYR/DMSO),[15],0.14
same,Log2 (PYR/DMSO),[16],0.14
same,Log2 (PYR/DMSO),[17],0.16
same,Log2 (PYR/DMSO),[18],0.16
same,Log2 (PYR/DMSO),[19],0.20
same,Log2 (PYR/DMSO),[20],0.14
same,Log2 (PYR/DMSO),[21],0.15
same,Log2 (PYR/DMSO),[22],0.16
same,Log2 (PYR/DMSO),[23],0.14
same,Log2 (PYR/DMSO),[24],0.23
same,Log2 (PYR/DMSO),[25],0.13
same,Log2 (PYR/DMSO),[26],0.14
same,Log2 (PYR/DMSO),[27],0.14
same,Log2 (PYR/DMSO),[28],0.21
same,Log2 (PYR/DMSO),[29],0.16
same,Log2 (PYR/DMSO),[30],-0.04
